In patent US20240299373A1, “IMPROVED USE OF TRADIPITANT IN MOTION SICKNESS” (Vanda Pharmaceuticals Inc., priority 2023, published 2024):
Marks after values point to notes of the source that are not given here.

What was measured:
[1] = test system: panel of 74 other receptors, enzymes, and ion channels; test: Selectivity panel binding; details: test concentration of 1 μM
Excerpt: Tradipitant is a selective neurokinin-1 (NK-1) receptor antagonist. […] By 3 different measures, tradipitant is also a potent centrally active NK-1 antagonist in vivo.

[2] = biological target: T1, NK-2 receptor (Homo sapiens, UniProt P21452); test: NK-2 receptor inhibition; assay type: binding
T1 sequence (P21452 1-398): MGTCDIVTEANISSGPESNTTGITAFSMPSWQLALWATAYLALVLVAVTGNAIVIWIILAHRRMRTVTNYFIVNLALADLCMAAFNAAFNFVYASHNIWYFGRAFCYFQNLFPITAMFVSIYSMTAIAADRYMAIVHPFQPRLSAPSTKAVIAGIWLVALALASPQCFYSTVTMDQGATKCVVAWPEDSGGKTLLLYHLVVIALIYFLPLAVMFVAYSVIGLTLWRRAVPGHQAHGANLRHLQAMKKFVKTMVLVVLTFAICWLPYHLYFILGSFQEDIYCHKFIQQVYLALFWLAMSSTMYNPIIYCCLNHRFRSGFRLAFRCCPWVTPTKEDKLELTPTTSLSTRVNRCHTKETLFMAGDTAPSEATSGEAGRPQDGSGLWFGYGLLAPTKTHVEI

[3] = biological target: T2, NK-3 receptor (Homo sapiens, UniProt P29371); test: NK-3 receptor inhibition; assay type: binding
T2 sequence (P29371 1-465): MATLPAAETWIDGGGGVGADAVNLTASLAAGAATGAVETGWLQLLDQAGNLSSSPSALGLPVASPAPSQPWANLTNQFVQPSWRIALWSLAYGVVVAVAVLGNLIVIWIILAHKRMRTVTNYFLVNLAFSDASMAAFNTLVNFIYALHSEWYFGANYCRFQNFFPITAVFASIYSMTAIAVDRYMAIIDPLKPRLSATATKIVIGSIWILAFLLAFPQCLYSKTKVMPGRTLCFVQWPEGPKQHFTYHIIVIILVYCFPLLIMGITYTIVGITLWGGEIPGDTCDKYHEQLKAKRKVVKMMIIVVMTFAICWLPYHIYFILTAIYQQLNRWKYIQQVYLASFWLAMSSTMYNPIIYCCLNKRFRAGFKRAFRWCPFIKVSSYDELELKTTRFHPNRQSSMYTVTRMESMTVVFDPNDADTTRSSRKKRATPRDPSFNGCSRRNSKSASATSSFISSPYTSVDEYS

[4] = test system: apomorphine-induced emesis; test: Emetic challenge study (apomorphine-induced emesis) in beagle dogs; assay type: in vivo, beagle dog; details: for Total No. Emetic Episodes: apomorphine 0.1 mg/kg iv 2 hours later, five dogs, APO control 28
Method: Over the five (5) weeks of the study, each animal receives each of the treatments, but only one per week. The purpose of this study is to determine if tradipitant suppresses apomorphine-induced emesis.
The mid dose of tradipitant is the approximate half-log interval between the low and high doses.
All animals are dosed over a period of five (5) weeks, with each dog receiving one of five different treatments on each day of dosing.
All dogs are fasted overnight prior to each treatment day and then fed approximately one (1) hour after oral dosing (approximately one (1) hour prior to administration of apomorphine). Individual doses are adjusted weekly for changes in body weight.
The dose regimen consists of a 5×5 Latin square design, in which each subject receives 1 dose or dose combination per week (6 day washout) as shown in Table 3 below.

[5] = biological target: T3, NK-1 receptor (Cavia porcellus, UniProt P30547); test: GR73632-induced vocalization in guinea pigs; assay type: in vivo; details: guinea pig
T3 construct: potency and CNS penetration of NK-1 antagonists in the guinea pig; from tissue; host or cells: brain of living Dunkin/Hartley guinea pigs
Method: When introduced into the brain, the NK-1 receptor agonist substance P (SP) elicits distress vocalizations in the guinea pig that can be inhibited by NK-1 antagonists.
Male Dunkin/Hartley guinea pigs (200 to 250 grams) are orally administered either vehicle or an NK-1 antagonist. Approximately 45 minutes later (for dose response studies), the animals are anesthetized and 0.1 nmol of GR73632 (SP analog) in a vehicle volume of 5 μl is injected into the cerebral ventricle at the intersection of bregma and the midline of the skull. Animals are placed in a dark testing chamber located inside of a sound attenuation cubicle and vocalizations are recorded for 30 minutes following recovery from anesthesia. The time spent vocalizing is quantified for each animal. In the duration of action study, 0.1 mg/kg of tradipitant or vehicle solution is administered orally and then 2, 4, or 7 hours later, 0.1 nmol of GR73632 is administered into the cerebral ventricle as described above. Vocalizations are recorded and quantified as indicated above. Vehicle solutions are either CMC (FIG. 4 data) or an ethanol/emulphor solution (FIGS. 5 and 6). Data is analyzed using one-tailed t-tests.

[6] = test system: brain NK-1 receptors; test: Occupancy of brain NK-1 receptors with tracer GR205171; assay type: in vivo; details: p.o., tracer GR205171 iv
Method: A tracer NK-1 antagonist compound (GR205171) is used to evaluate the ability of other NK-1 antagonists to occupy the brain NK-1 receptors. In these studies, the test compounds are administered orally and the tracer compound is administered intravenously afterward. The occupancy of the NK-1 receptors is evaluated by quantitating the amount of the tracer compound bound to the brain NK-1 receptors after increasing doses of the test compounds.

[7] = test system: small bowel transit and gastric emptying; test: Clinical study of gastrointestinal motility (gamma scintigraphy); assay type: in vivo, human; details: healthy subjects, 20 mg or 200 mg single oral dose; study underpowered for this parameter
Method: A single-center, randomized, double-blind, placebo-controlled study is conducted to investigate the effect of tradipitant on small bowel transit time. A total of 15 healthy subjects, including 12 men and 3 women between the ages of 19 and 63 years, are enrolled in the study and receive at least 1 dose of study medication. A total of 13 subjects complete the study. Subjects are randomized to receive 20 mg of tradipitant, 200 mg of tradipitant, or placebo as a single oral dose within each of 3 periods, co-administered with a capsule radiolabeled with a maximum of 1MBq ^111In. Four hours post-dose, all subjects also receive a second capsule radiolabeled with a maximum of 4MBq ^99mTc. Each subject receives all 3 doses during the study. For all dosing regimens, in vivo gamma scintigraphic studies are performed at predetermined intervals, and the following scintigraphic parameters are analyzed: onset and completion of gastric emptying, onset and completion of colon arrival, initiation and completion of small bowel transit, and initial and complete disintegration of the capsule (anatomical location and time).

T3 sequence (P30547 whole entry): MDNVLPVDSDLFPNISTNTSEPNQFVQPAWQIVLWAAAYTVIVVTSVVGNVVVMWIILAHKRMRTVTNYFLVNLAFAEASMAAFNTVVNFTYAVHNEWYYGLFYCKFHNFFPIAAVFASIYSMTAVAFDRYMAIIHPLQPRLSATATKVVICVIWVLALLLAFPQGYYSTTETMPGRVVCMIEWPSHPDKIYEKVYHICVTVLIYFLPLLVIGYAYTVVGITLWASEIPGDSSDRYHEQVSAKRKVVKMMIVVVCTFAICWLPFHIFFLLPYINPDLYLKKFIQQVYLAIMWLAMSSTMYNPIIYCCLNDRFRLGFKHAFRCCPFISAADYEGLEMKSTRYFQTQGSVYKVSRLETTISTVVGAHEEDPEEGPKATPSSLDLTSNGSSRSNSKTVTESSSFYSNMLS

With `O=C(c1ccccc1Cl)c1cccnc1-c1nnn(Cc2cc(C(F)(F)F)cc(C(F)(F)F)c2)c1-c1ccncc1` [Tradipitant, {2-[1-(3,5-bistrifluoromethylbenzyl)-5-pyridin-4-yl-1H-[1,2,3]triazol-4-yl]-pyridin-3-yl}-(2-chlorophenyl)-methanone] the “inhibition of binding in panel of 74 other receptors, enzymes, and ion channels” value [1] was no more than 50%, the “inhibition at NK-2 receptor” value [2] was “no significant inhibition” and the “inhibition at NK-3 receptor” value [3] was “no significant inhibition”. For the same molecule, the “Total No. Emetic Episodes” value ([4]; 0.3 mg/kg oral) was 1**, the “Total No. Emetic Episodes” value ([4]; 1.0 mg/kg oral) was 1** and the “Total No. Emetic Episodes” value ([4]; 3.0 mg/kg oral) was 1**. The “effect against apomorphine-induced emesis” value ([4]; each dose tested (0.3, 1.0, and 3.0 mg/kg)) was “effective”, the “suppression of agonist-induced vocalization” value ([5]; 0.1 mg/kg oral, 7 hours after administration) was “significantly active” and the duration of activity ([5]; administered orally) was “exceeds 7 hours”. The “inhibitory activity on vocalization” value ([5]; at and below 0.1 mg/kg oral) was “retains significant inhibitory activity”, the “inhibition of agonist-induced vocalization” value ([5]; oral, 10, 1.0, 0.1 and 0.05 mg/kg (each p<0.001)) was “significant inhibition” and the “minimum effective dose (MED), inhibition of vocalization” value ([5]; oral, p<0.001 compared to controls) was 0.025 mg/kg. The “ED50, occupancy of brain NK-1 receptors” value [6] was 0.04 mg/kg and the “effect on gastric emptying” value [7] was “No effect”.
